Reference: US7226923B2, “Phthalazinone derivatives” (Hoffman-La Roche Inc., priority 2004, dated 2007)
pIC50: −log10 of the molar value.

Legend:
Aurora A = target: T1, Aurora A (Homo sapiens, UniProt O14965); assay: IC50 determination for inhibitors of Aurora A (96 MTP-ELISA); format: biochemical; conditions: His4-tagged full-length Aurora A 250 ng/ml, PKB-GSK2 200 nM, ATP 4 μM, 90 min at room temperature, read-out: IC50 Aurora A kinase inhibition
T1 construct: C-terminally Histidine4 (His4)-tagged Aurora A full-length protein
T1 sequence (O14965 1-403): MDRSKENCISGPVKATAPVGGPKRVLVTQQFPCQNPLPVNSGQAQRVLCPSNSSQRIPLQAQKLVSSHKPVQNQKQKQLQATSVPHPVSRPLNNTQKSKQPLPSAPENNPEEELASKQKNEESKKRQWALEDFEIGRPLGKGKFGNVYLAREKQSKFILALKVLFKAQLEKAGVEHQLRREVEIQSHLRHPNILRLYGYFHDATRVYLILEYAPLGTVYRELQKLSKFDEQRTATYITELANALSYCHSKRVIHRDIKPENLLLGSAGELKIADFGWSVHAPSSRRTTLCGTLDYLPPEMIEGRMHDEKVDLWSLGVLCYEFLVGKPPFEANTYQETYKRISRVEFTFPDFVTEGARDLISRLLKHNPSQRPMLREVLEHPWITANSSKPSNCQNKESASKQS
Description: IC50 Determination for Inhibitors of Aurora A
• Aurora A is a serine threonine kinase involved in spindle assembly and chromosome segregation.
The assay is a typically ELISA-type assay where biotinylated substrate (PKB-GSK2) is phosphorylated. Phosphorylation is detected by peroxidase (POD) labelled polyclonal antibody (PAK<M-Ig>S-IgG-POD) and phosphopeptide monoclonal antibody (Mab) (MAK<P-GSK>M-27E5-IgG). The assay is validated for IC50-determination.
Method • This assay is performed in 96-well format for IC50 determination with 5 samples (each with 8 concentrations by twofold testing), 100 μl incubation volume and the following plate layout: […]

HCT 116 cells = assay: CellTiter-Glo assay in HCT 116 cells; format: cell-based, human; conditions: Homo sapiens, HCT-116, 120 h, 5 days incubation, 30 μM to 0.0015 μM
Description: CellTiter-Glo™ Assay in HCT 116 Cells
The CellTiter-Glo™ Luminescent Cell Viability Assay (Promega) is a homogeneous method of determining the number of viable cells in culture based on quantitation of the ATP present, which signals the presence of metabolically active cells.
HCT 116 cells (human colon carcinoma, ATCC-No. CCl-247) were cultivated in RPMI 1640 medium with GlutaMAX™ I (Invitrogen, Cat-No. 61870-010), 2.5% Fetal Calf Serum (FCS, Sigma Cat-No. F4135 (FBS)); 100 Units/ml penicillin/100 μg/ml streptomycin (=Pen/Strep from Invitrogen Cat. No. 15140). For the assay the cells were seeded in 384 well plates, 1000 cells per well, in the same medium. The next day the test compounds were added in various concentrations ranging from 30 μM to 0.0015 μM (10 concentrations, 1:3 diluted). After 5 days the CellTiter-Glo™ assay was done according to the instructions of the manufacturer (CellTiter-Glo™ Luminescent Cell Viability Assay, from Promega). In brief: the cell-plate was equilibrated to room temperature for approximately 30 minutes and than the CellTiter-Glo™ reagent was added. The contents were carefully mixed for 15 minutes to induce cell lysis. After 45 minutes the luminescent signal was measured in Victor 2, (scanning multiwell spectrophotometer, Wallac).
1st. Day: • Medium: RPMI 1640 with GlutaMAX™ I (Invitrogen, Cat-Nr. 61870), 5% FCS (Sigma Cat.-No. F4135), Pen/Strep (Invitrogen, Cat No. 15140). • HCT116 (ATCC-No. CCl-247): 1000 cells in 60 μl per well of 384 well plate (Greiner 781098, μClear-plate white) • After seeding incubate plates 24 h at 37° C., 5% CO2
2nd. Day: Induction (Treatment with Compounds, 10 Concentrations):
In order to achieve a final concentration of 30 μM as highest concentration 3.5 μl of 10 mM compound stock solution were added directly to 163 μl media. Then step e) of the dilution procedure described below, was followed.

Row | SMILES | pIC50 (Aurora A) | pIC50 (HCT 116 cells)
1 | Cc1cc(Nc2nn(Cc3ccc(F)cc3)c(=O)c3ccccc23)n[nH]1 [Example A-20, 2-(4-Fluoro-benzyl)-4-(5-methyl-1H-pyrazol-3-ylamino)-2H-phthalazin-1-one] | 7.00 to 9.00 | 5.00 to 7.00
2 | Cc1cc(Nc2nn(Cc3ccccn3)c(=O)c3ccccc23)[nH]n1 [Example A-22, 4-(5-Methyl-2H-pyrazol-3-ylamino)-2-pyridin-2-ylmethyl-2H-phthalazin-1-one] | 7.00 to 9.00 | 5.00 to 7.00
3 | Cc1cc(Nc2nn(-c3ccc(C(F)(F)F)cc3)c(=O)c3ccccc23)n[nH]1 [Example A-25, 4-(5-Methyl-1H-pyrazol-3-ylamino)-2-(4-trifluoromethyl-phenyl)-2H-phthalazin-1-one] | 7.00 to 9.00 | 5.00 to 7.00
4 | Cc1cccc(-n2nc(Nc3cc(C)[nH]n3)c3ccccc3c2=O)c1 [Example B-2, 4-(5-Methyl-1H-pyrazol-3-ylamino)-2-m-tolyl-2H-phthalazin-1-one] | 7.00 to 9.00 | 6.11
5 | Cc1cc(Nc2nn(Cc3ccc([N+](=O)[O-])cc3)c(=O)c3ccccc23)n[nH]1 [Example B-3, 4-(5-Methyl-1H-pyrazol-3-ylamino)-2-(4-nitro-benzyl)-2H-phthalazin-1-one] | 6.00 to 7.00 | 5.00 to 7.00
6 | Cc1cc(Nc2nn(Cc3ccc(N)cc3)c(=O)c3ccccc23)n[nH]1 [Example C-1, 2-(4-Aminobenzyl)-4-(5-methyl-1H-pyrazol-3-ylamino)-2H-phthalazin-1-one] | 7.00 to 9.00 | 5.00 to 7.00
7 | CC(=O)Nc1ccc(Cn2nc(Nc3cc(C)[nH]n3)c3ccccc3c2=O)cc1 [Example D-1, N-{4-[4-(5-Methyl-1H-pyrazol-3-ylamino)-1-oxo-1H-phthalazin-2-ylmethyl]-phenyl}-acetamide] | 7.00 to 9.00 | 5.38
8 | Cc1cc(Nc2nn(C(C)C)c(=O)c3cc(F)ccc23)n[nH]1 [Example E-2, 7-Fluoro-2-isopropyl-4-(5-methyl-1H-pyrazol-3-ylamino)-2H-phthalazin-1-one] | 7.00 to 9.00 | 5.00 to 7.00
9 | COc1cccc(C(=O)Cn2nc(Nc3cc(C)[nH]n3)c3ccccc3c2=O)c1 [Example E-5, 2-[2-(3-Methoxy-phenyl)-2-oxo-ethyl]-4-(5-methyl-1H-pyrazol-3-ylamino)-2H-phthalazin-1-one] | 7.00 to 9.00 | 5.00 to 7.00
10 | Cc1cc(Nc2nn(CC(=O)c3ccc(OC(F)(F)F)cc3)c(=O)c3ccccc23)n[nH]1 [Example E-6, 4-(5-Methyl-1H-pyrazol-3-ylamino)-2-[2-oxo-2-(4-trifluoromethoxy-phenyl)-ethyl]-2H-phthalazin-1-one] | 6.00 to 7.00 | 4.00 to 5.00
11 | Cc1cc(Nc2nn(CC(=O)c3ccc4c(c3)OCO4)c(=O)c3ccccc23)n[nH]1 [Example E-7, 2-(2-Benzo[1,3]dioxol-5-yl-2-oxo-ethyl)-4-(5-methyl-1H-pyrazol-3-ylamino)-2H-phthalazin-1-one] | 6.00 to 7.00 | 5.00 to 7.00
12 | Cc1cc(Nc2nn(CC(=O)c3ccccc3)c(=O)c3ccccc23)n[nH]1 [Example E-9, 4-(5-Methyl-1H-pyrazol-3-ylamino)-2-(2-oxo-2-phenyl-ethyl)-2H-phthalazin-1-one] | 7.00 to 9.00 | 5.00 to 7.00
13 | Cc1cc(Nc2nn(CC(O)c3ccccc3)c(=O)c3ccccc23)n[nH]1 (stereo not drawn) [Example E-13, 2-(2-Hydroxy-2-phenyl-ethyl)-4-(5-methyl-1H-pyrazol-3-ylamino)-2H-phthalazin-1-one] | 6.00 to 7.00 | 4.00 to 5.00
14 | Cc1cc(Nc2nn(C(C)C)c(=O)c3cc(N4CCOCC4)ccc23)n[nH]1 [Example F-1, 2-Isopropyl-4-(5-methyl-1H-pyrazol-3-ylamino)-7-morpholino-2H-phthalazin-1-one] | 7.00 to 9.00 | 5.00 to 7.00
15 | Cc1cc(Nc2nn(C(C)C)c(=O)c3c(N4CCOCC4)cccc23)n[nH]1 [Example F-3, 2-Isopropyl-4-(5-methyl-1H-pyrazol-3-ylamino)-8-morpholino-2H-phthalazin-1-one] | 7.00 to 9.00 | 5.00 to 7.00
16 | Cc1cc(Nc2nn(Cc3ccccc3)c(=O)c3cc(N4CCOCC4)ccc23)n[nH]1 [Example F-4, 2-Benzyl-4-(5-methyl-1H-pyrazol-3-ylamino)-7-morpholino-2H-phthalazin-1-one] | 7.00 to 9.00 | 5.00 to 7.00
17 | Cc1cc(Nc2nn(C(C)C)c(=O)c3cc(N4CCN(C)CC4)ccc23)[nH]n1 [Example F-5, 2-Isopropyl-7-(4-methyl-piperazin-1-yl)-4-(5-methyl-2H-pyrazol-3-ylamino)-2H-phthalazin-1-one] | 7.00 to 9.00 | 5.00 to 7.00
18 | Cc1cc(Nc2nn(C(C)C)c(=O)c3c(N(C)C)cccc23)n[nH]1 [Example F-8, 2-Isopropyl-4-(5-methyl-1H-pyrazol-3-ylamino)-8-dimethylamino-2H-phthalazin-1-one] | 7.00 to 9.00 | 6.38
19 | CC(C)n1nc(Nc2cc(C3CC3)n[nH]2)c2ccc(N(C)C)cc2c1=O [Example F-9, 4-(5-Cyclopropyl-2H-pyrazol-3-ylamino)-7-dimethylamino-2-isopropyl-2H-phthalazin-1-one] | 7.00 to 9.00 | 5.00 to 7.00
20 | COc1ccc2c(Nc3cc(C)[nH]n3)nn(C(C)C)c(=O)c2c1 [Example G-1, 2-Isopropyl-4-(5-methyl-1H-pyrazol-3-ylamino)-7-methoxy-2H-phthalazin-1-one] | 7.00 to 9.00 | 5.00 to 7.00
21 | Cc1cc(Nc2nn(C(C)C)c(=O)c3cc(OCc4ccccn4)ccc23)n[nH]1 [Example G-2, 2-Isopropyl-4-(5-methyl-1H-pyrazol-3-ylamino)-7-(pyridin-2-ylmethoxy)-2H-phthalazin-1-one] | 7.00 to 9.00 | 5.00 to 7.00
22 | Cc1cc(Nc2nn(C(C)C)c(=O)c3cc(OCc4ccncc4)ccc23)n[nH]1 [Example G-4, 2-Isopropyl-4-(5-methyl-1H-pyrazol-3-ylamino)-7-(pyridin-4-ylmethoxy)-2H-phthalazin-1-one] | 7.00 to 9.00 | 5.00 to 7.00
23 | Cc1cc(Nc2nn(C(C)C)c(=O)c3cc(OCCN4CCOCC4)ccc23)n[nH]1 [Example G-5, 2-Isopropyl-4-(5-methyl-1H-pyrazol-3-ylamino)-7-(2-morpholin-4-yl-ethoxy)-2H-phthalazin-1-one] | 8.15 | 5.00 to 7.00
24 | Cc1cc(Nc2nn(C(C)C)c(=O)c3cc(OC(F)F)ccc23)n[nH]1 [Example G-7, 7-Difluoromethoxy-2-isopropyl-4-(5-methyl-1H-pyrazol-3-ylamino)-2H-phthalazin-1-one] | 7.00 to 9.00 | 5.00 to 7.00
25 | COc1ccc2c(=O)n(C(C)C)nc(Nc3cc(C)[nH]n3)c2c1 [Example G-9, 2-Isopropyl-6-methoxy-4-(5-methyl-1H-pyrazol-3-ylamino)-2H-phthalazin-1-one] | 7.00 to 9.00 | 5.00 to 7.00
26 | CSc1ccc2c(Nc3cc(C)[nH]n3)nn(C(C)C)c(=O)c2c1 [Example H-1, 2-Isopropyl-4-(5-methyl-1H-pyrazol-3-ylamino)-7-methylsulfanyl-2H-phthalazin-1-one] | 7.00 to 9.00 | 5.00 to 7.00
27 | Cc1cc(Nc2nn(C(C)C)c(=O)c3cc(N(C)CCN4CCOCC4)ccc23)n[nH]1 [Example I-1, 2-Isopropyl-7-[methyl-(2-morpholin-4-yl-ethyl)-amino]-4-(5-methyl-1H-pyrazol-3-ylamino)-2H-phthalazin-1-one] | 7.00 to 9.00 | 5.00 to 7.00
